In patent US20040147478A1, “Combination chemotherapy” (priority 2002, published 2004):
Where two headings read alike, the source gives them in different places.

Experiments:
[1] = tested on: C26/clone 10 mouse colon carcinoma
[2] = tested on: C26/clone 10 mouse colon carcinoma; remark: listed apart in the source
[3] = tested on: COLO-205 human colon carcinoma xenografts
[4] = tested on: COLO-205 human colon carcinoma xenografts; remark: listed apart in the source
[5] = tested on: COLO-205 human colon carcinoma xenografts; remark: listed apart in the source
in vivo [6] = settings: female, Balb/C, mouse, po
in vivo [7] = settings: female, NCr-nu athymic
in vivo [8] = settings: female, NCr-nu athymic; remark: listed apart in the source
in vivo [9] = settings: female, NCr-nu athymic; remark: listed apart in the source
[10] = Capecitabine 500 mg/kg qd alone
[11] = highest dose of capecitabine alone
[12] = Capecitabine 500 mg/kg QD alone
[13] = Capecitabine 650 mg/kg QD alone
[14] = Capecitabine 650 mg/kg qd alone
[15] = Compound A single agent at the MTD

SMILES: O=C(NOCC1CC1)c1ccc(F)c(F)c1Nc1ccc(I)cc1Cl [CI-1040, 2-(2-Chloro-4-iodo-phenylamino)-N-cyclopropylmethoxy-3,4-difluorobenzamide]
- % Weight Change ([1]; CI-1040 37.5 mg/kg tid alone): −5.1%
- CR (complete response) ([1]; CI-1040 37.5 mg/kg tid alone): 0/10
- Net Log10 Kill ([1]; CI-1040 37.5 mg/kg tid alone): −0.62
- Non-specific Deaths ([1]; CI-1040 37.5 mg/kg tid alone): 0/10
- PR (partial response) ([1]; CI-1040 37.5 mg/kg tid alone): 0/10
- T-C (tumor growth delay) ([1]; CI-1040 37.5 mg/kg tid alone): 3.8 days
- Tumor Free (day 93) ([1]; CI-1040 37.5 mg/kg tid alone): 0/10
- % Weight Change ([1]; CI-1040 75.0 mg/kg tid alone): −5.1%
- CR (complete response) ([1]; CI-1040 75.0 mg/kg tid alone): 0/10
- Net Log10 Kill ([1]; CI-1040 75.0 mg/kg tid alone): −0.21
- Non-specific Deaths ([1]; CI-1040 75.0 mg/kg tid alone): 0/10
- PR (partial response) ([1]; CI-1040 75.0 mg/kg tid alone): 0/10
- T-C (tumor growth delay) ([1]; CI-1040 75.0 mg/kg tid alone): 9.8 days
- Tumor Free (day 93) ([1]; CI-1040 75.0 mg/kg tid alone): 0/10
- % Weight Change ([1]; CI-1040 300.0 mg/kg tid alone): −5.1%
- CR (complete response) ([1]; CI-1040 300.0 mg/kg tid alone): 0/10
- Net Log10 Kill ([1]; CI-1040 300.0 mg/kg tid alone): 0.25
- Non-specific Deaths ([1]; CI-1040 300.0 mg/kg tid alone): 0/10
- PR (partial response) ([1]; CI-1040 300.0 mg/kg tid alone): 2/10
- T-C (tumor growth delay) ([1]; CI-1040 300.0 mg/kg tid alone): 16.7 days
- Tumor Free (day 93) ([1]; CI-1040 300.0 mg/kg tid alone): 0/10
- partial tumor responses ([1]; CI-1040 300 mg/kg/treatment alone): 20%
- loss of initial body weight ([1]; CI-1040 alone, over the dosage range administered): approximately 5%
- % Weight Change ([2]; CI-1040 37.5 mg/kg tid alone): −5.6%
- CR (complete response) ([2]; CI-1040 37.5 mg/kg tid alone): 0/10
- Net Log10 Kill ([2]; CI-1040 37.5 mg/kg tid alone): −0.93
- Non-specific Deaths ([2]; CI-1040 37.5 mg/kg tid alone): 0/10
- PR (partial response) ([2]; CI-1040 37.5 mg/kg tid alone): 0/10
- T-C (tumor growth delay) ([2]; CI-1040 37.5 mg/kg tid alone): 1.9 days
- Tumor Free (day 56) ([2]; CI-1040 37.5 mg/kg tid alone): 0/10
- % Weight Change ([2]; CI-1040 75.0 mg/kg tid alone): −10.5%
- CR (complete response) ([2]; CI-1040 75.0 mg/kg tid alone): 0/10
- Net Log10 Kill ([2]; CI-1040 75.0 mg/kg tid alone): −0.33
- Non-specific Deaths ([2]; CI-1040 75.0 mg/kg tid alone): 0/10
- PR (partial response) ([2]; CI-1040 75.0 mg/kg tid alone): 1/10
- T-C (tumor growth delay) ([2]; CI-1040 75.0 mg/kg tid alone): 9.0 days
- Tumor Free (day 56) ([2]; CI-1040 75.0 mg/kg tid alone): 0/10
- % Weight Change ([2]; CI-1040 300.0 mg/kg tid alone): −5.3%
- CR (complete response) ([2]; CI-1040 300.0 mg/kg tid alone): 0/10
- Net Log10 Kill ([2]; CI-1040 300.0 mg/kg tid alone): −0.04
- Non-specific Deaths ([2]; CI-1040 300.0 mg/kg tid alone): 0/10
- PR (partial response) ([2]; CI-1040 300.0 mg/kg tid alone): 4/10
- T-C (tumor growth delay) ([2]; CI-1040 300.0 mg/kg tid alone): 12.5 days
- Tumor Free (day 56) ([2]; CI-1040 300.0 mg/kg tid alone): 0/10
- partial tumor rate ([2]; highest dose of CI-1040 alone): 40%

SMILES: CCCCCOC(=O)Nc1nc(=O)n([C@@H]2O[C@H](C)[C@@H](O)[C@H]2O)cc1F [Capecitabine, 5′-deoxy-5-fluoro-N-[(pentyloxy)carbonyl]-cytidine]
- CR (complete response) [1, 10]: 4/10
- Net Log10 Kill [1, 10]: 0.50
- Non-specific Deaths [1, 10]: 0/10
- PR (partial response) [1, 10]: 1/10
- T-C (tumor growth delay) [1, 10]: 18.4 days
- Tumor Free (day 93) [1, 10]: 3/10
- tumor growth delay ([1]; both dosages of capecitabine alone): approximately 18 days
- complete tumor responses ([1]; capecitabine 500 mg/kg alone): 40%
- partial tumor responses ([1]; capecitabine 500 mg/kg alone): 10%
- tumor-free when the study ended on day 93 ([1]; capecitabine 500 mg/kg alone): 30%
- complete tumor responses [1, 11]: 70%
- partial tumor responses [1, 11]: 10%
- loss of initial body weight ([1]; mouse, in vivo): approximately 5%
- CR (complete response) [3, 12]: 0/10
- Net Log10 Kill [3, 12]: 0.7
- Non-specific Deaths [3, 12]: 0/10
- PR (partial response) [3, 12]: 1/10
- T-C (tumor growth delay) [3, 12]: 33.4 days
- Tumor Free (day 118) [3, 12]: 0/10
- CR (complete response) [3, 13]: 3/10
- Net Log10 Kill [3, 13]: 1.5
- Non-specific Deaths [3, 13]: 0/10
- PR (partial response) [3, 13]: 4/10
- T-C (tumor growth delay) [3, 13]: 56.0 days
- Tumor Free (day 118) [3, 13]: 2/10
- Tumor Free (day 112) [4, 10]: 1/9
- Non-specific Deaths [4, 14]: 0/10
- Tumor Free (day 112) [4, 14]: 2/10
- Tumor Free (day 129) [5, 10]: 0/10
- Non-specific Deaths [5, 14]: 0/10
- Tumor Free (day 129) [5, 14]: 0/10
- MTD (in vivo [6]): 750 mg/kg/day
- MTD (in vivo [7]): 650 mg/kg
- MTD (in vivo [8]): 650 mg/kg
- MTD (in vivo [9]): 650 mg/kg
- CR (complete response) [2, 10]: 0/10
- Net Log10 Kill [2, 10]: 0.20
- Non-specific Deaths [2, 10]: 0/10
- PR (partial response) [2, 10]: 0/10
- T-C (tumor growth delay) [2, 10]: 13.4 days
- Tumor Free (day 56) [2, 10]: 0/10
- partial tumor responses ([2]; capecitabine 750 mg/kg alone): 40%

SMILES: O=C(NOC[C@H](O)CO)c1ccc(F)c(F)c1Nc1ccc(I)cc1F [Compound A, N-[(R)-2,3-Dihydroxy-propoxy]-3,4-difluoro-2-(2-fluoro-4-iodo-phenylamino)-benzamide]
- Net Log10 Kill ([3]; Compound A 3.13 mg/kg QD alone): 0.9
- T-C (tumor growth delay) ([3]; Compound A 3.13 mg/kg QD alone): 40.6 days
- Net Log10 Kill ([3]; Compound A 6.25 mg/kg QD alone): 0.6
- T-C (tumor growth delay) ([3]; Compound A 6.25 mg/kg QD alone): 30.1 days
- growth delays [3, 15]: up to 42 days
- tumor cells survived treatment (net kill calculations) ([3]; Compound A single agent, all tolerated dose levels): > 10%
- complete regressions ([3]; Compound A single agent, all tolerated doses): > 50%
- tumor cells survived treatment (net kill calculations) ([4]; Compound A single agent, most tolerated dose levels): > 10%
- tumor cells survived treatment (net kill calculations) [5, 15]: < 10%
- MTD (in vivo [7]): 12.5 mg/kg
- MTD (in vivo [8]): 12.5 mg/kg
- MTD (in vivo [9]): 12.5 mg/kg
